From patent US20240150362A1, “Substituted Pyrrolotriazines” (Molecure S.A., priority 2022, published 2024) come the findings set out here.

Where a name gives a salt, the structure may show the parent alone.

In the first experiment the target is T1, full-length USP7 (Homo sapiens, UniProt Q93009).
T1 construct: A 45 μl reaction volume containing full-length USP7 (0.5-1.0 nM)
T1 sequence (Q93009 whole entry): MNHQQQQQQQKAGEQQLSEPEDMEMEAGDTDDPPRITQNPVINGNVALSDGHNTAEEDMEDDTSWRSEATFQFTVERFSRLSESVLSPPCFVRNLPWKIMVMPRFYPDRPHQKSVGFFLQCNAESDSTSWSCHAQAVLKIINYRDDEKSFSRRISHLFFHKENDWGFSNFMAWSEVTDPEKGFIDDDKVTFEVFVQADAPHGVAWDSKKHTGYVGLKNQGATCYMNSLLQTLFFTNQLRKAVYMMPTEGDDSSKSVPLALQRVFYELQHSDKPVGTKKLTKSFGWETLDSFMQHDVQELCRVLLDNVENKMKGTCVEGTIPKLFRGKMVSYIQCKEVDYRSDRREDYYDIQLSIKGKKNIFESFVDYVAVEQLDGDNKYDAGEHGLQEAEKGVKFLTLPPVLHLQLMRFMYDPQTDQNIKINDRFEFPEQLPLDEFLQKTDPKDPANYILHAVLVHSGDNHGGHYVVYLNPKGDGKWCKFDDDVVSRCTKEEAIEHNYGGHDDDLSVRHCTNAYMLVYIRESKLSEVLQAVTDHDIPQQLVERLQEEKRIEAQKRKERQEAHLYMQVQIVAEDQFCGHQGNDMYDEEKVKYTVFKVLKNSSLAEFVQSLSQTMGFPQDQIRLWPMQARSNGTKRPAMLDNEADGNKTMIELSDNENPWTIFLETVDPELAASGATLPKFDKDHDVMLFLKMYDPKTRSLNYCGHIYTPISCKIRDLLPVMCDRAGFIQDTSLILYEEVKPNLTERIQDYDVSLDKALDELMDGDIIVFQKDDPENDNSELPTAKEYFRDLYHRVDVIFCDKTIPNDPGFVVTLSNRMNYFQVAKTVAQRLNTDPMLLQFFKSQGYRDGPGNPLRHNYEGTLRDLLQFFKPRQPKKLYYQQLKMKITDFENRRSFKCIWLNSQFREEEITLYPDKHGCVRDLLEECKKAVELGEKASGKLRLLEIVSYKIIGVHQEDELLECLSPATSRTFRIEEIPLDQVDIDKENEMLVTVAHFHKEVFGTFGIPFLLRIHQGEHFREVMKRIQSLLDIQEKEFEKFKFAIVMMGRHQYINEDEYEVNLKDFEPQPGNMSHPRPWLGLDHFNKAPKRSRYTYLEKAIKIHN
Nature of the experiment: Enzymatic assay to determine % inhibition of USP7 activity at 1 μM test compound (Ubiquitin-Rhodamine 110 cleavage). It counts as biochemical. Particulars: 1 μM of the test compound; given where IC50 has not been determined yet; mean of two repetitions. The procedure: Enzymatic Assay to Determine % Value of Inhibition […] Activity at 1 μM […]
A 45 μl reaction volume containing full-length USP7 (0.5-1.0 nM) in 50 mM HEPES pH 7.5, 150 mM NaCl, 2 mM DTT, 1 mg/ml BSA and 0.05% Tween20 (DUB assay buffer) was assembled in wells of 96 well half area black flat bottom plates. All test compounds were first dissolved to 30 mM stocks in DMSO and subsequently introduced to enzyme 15 min after USP7 incubation with DTT at room temperature. The final concentration of tested compounds was 1 μM. The enzymatic reaction was started by adding 0.5 μM Ubiquitin-Rhodamine 110 (final concentration) and allowed to proceed for 30-60 min at 25° C., 250 RPM shaking before Rhodamine fluorescence (485 nm excitation/535 nm emission) was measured using Tecan Spark M10 plate reader. Percentage of inhibition at 1 μM was determined by the mean of two repetitions for these concentrations using Microsoft Excel software.
Turning to `CC1(C)C2C(=O)N(Cc3cc4c(-c5cc(Cl)ccc5N5CCNCC5)ncnn4c3)C(=O)C21` (stereo not shown) [Example 85, 3-((4-(5-chloro-2-(piperazin-1-yl)phenyl)pyrrolo[2,1-f][1,2,4]triazin-6-yl)methyl)-6,6-dimethyl-3-azabicyclo[3.1.0]hexane-2,4-dione hydrochloride], the inhibition – broadly, the change of the read-out against control, counted positive when it falls – at 1 µM is under 20%. Still for that read-out and setting: with `Cc1cc(Cl)cc(-c2ncnn3cc(CN4C(=O)C5C(C4=O)C5(C)C)cc23)c1CC1(C)CNCC(C)(C)O1` (stereo not shown) [Example 72, 3-((4-(5-chloro-3-methyl-2-((2,6,6-trimethylmorpholin-2-yl)methyl)phenyl)pyrrolo[2,1-f][1,2,4]triazin-6-yl)methyl)-6,6-dimethyl-3-azabicyclo[3.1.0]hexane-2,4-dione hydrochloride] the figure was over 70%; with `Cc1cc(Cl)cc(-c2ncnn3cc(CN4C(=O)C5C(C4=O)C5(C)C)cc23)c1CN1CCC2(CC1)CNC2` (stereo not shown) [Example 102, 3-((4-(2-((2,7-diazaspiro[3.5]nonan-7-yl)methyl)-5-chloro-3-methylphenyl)pyrrolo[2,1-f][1,2,4]triazin-6-yl)methyl)-6,6-dimethyl-3-azabicyclo[3.1.0]hexane-2,4-dione hydrochloride], 20 to 49%; with `CN[C@H]1CCCN(c2ccc(Cl)cc2-c2ncnn3cc(CN4C(=O)C5C(C4=O)C5(C)C)cc23)C1` (stereo partly drawn) [Example 112, 3-((4-(5-chloro-2-((S)-3-(methylamino)piperidin-1-yl)phenyl)pyrrolo[2,1-f][1,2,4]triazin-6-yl)methyl)-6,6-dimethyl-3-azabicyclo[3.1.0]hexane-2,4-dione hydrochloride], 50 to 70%. Still for that read-out and setting: with `Cc1cc(Cl)cc(-c2ncnn3cc(Cn4c(=O)ccn(C)c4=O)cc23)c1C[C@H]1CNCCO1` (single isomer, unassigned) [Example 100, hydrochloride] the figure was 20 to 49%; with `Cc1cc(Cl)cc(-c2ncnn3cc(CN4C(=O)CN(C)C4=O)cc23)c1C[C@@H]1CNCCO1` (single isomer, unassigned) [Example 99, hydrochloride], over 70%; with `CCOC(=O)c1cc2c(-c3cc(Cl)cc(C)c3O[C@H]3CCCNC3)ncnn2c1` [Example 15, ethyl (S)-4-(5-chloro-3-methyl-2-(piperidin-3-yloxy)phenyl)pyrrolo[2,1-f][1,2,4]triazine-6-carboxylate hydrochloride], 20 to 49%. On the same count and under the same terms, next, `Cc1cc(Cl)cc(-c2ncnn3cc(C(=O)O)cc23)c1O[C@H]1CCCNC1` [Example 16, (S)-4-(5-chloro-3-methyl-2-(piperidin-3-yloxy)phenyl)pyrrolo[2,1-f][1,2,4]triazine-6-carboxylic acid hydrochloride]: under 20%; `Cc1cc(Cl)cc(-c2ncnn3cc(CN4C(=O)C5C(C4=O)C5(C)C)cc23)c1OC1CCNCC1` (stereo not shown) [Example 4, 3-((4-(5-chloro-3-methyl-2-(piperidin-4-yloxy)phenyl)pyrrolo[2,1-f][1,2,4]triazin-6-yl)methyl)-6,6-dimethyl-3-azabicyclo[3.1.0]hexane-2,4-dione hydrochloride]: 50 to 70%. `CC1(C)C2C(=O)N(Cc3cc4c(-c5cc(Cl)cc6c5N(C5CCNCC5)CCC6)ncnn4c3)C(=O)C21` (stereo not shown) [Example 54, 3-((4-(6-chloro-1-(piperidin-4-yl)-1,2,3,4-tetrahydroquinolin-8-yl)pyrrolo[2,1-f][1,2,4]triazin-6-yl)methyl)-6,6-dimethyl-3-azabicyclo[3.1.0]hexane-2,4-dione hydrochloride] had an inhibition at 1 µM of over 70%. Molecule `Cc1cc(Cl)cc(-c2ncnn3cc(CN4C(=O)C5C(C4=O)C5(C)C)cc23)c1OC[C@@H]1CCCNC1` (stereo partly drawn) [Example 53, 3-((4-(5-chloro-3-methyl-2-(((R)-piperidin-3-yl)methoxy)phenyl)pyrrolo[2,1-f][1,2,4]triazin-6-yl)methyl)-6,6-dimethyl-3-azabicyclo[3.1.0]hexane-2,4-dione hydrochloride] returned an inhibition at 1 µM of 20 to 49%. Still for that read-out and setting: with `Cc1cc(Cl)cc(-c2ncnn3cc(CN4C(=O)C5C(C4=O)C5(C)C)cc23)c1NC[C@@H]1CNCCO1` (stereo partly drawn) [Example 81, 3-((4-(5-chloro-3-methyl-2-((((S)-morpholin-2-yl)methyl)amino)phenyl)pyrrolo[2,1-f][1,2,4]triazin-6-yl)methyl)-6,6-dimethyl-3-azabicyclo[3.1.0]hexane-2,4-dione dihydrochloride] the figure was 20 to 49%. Same read-out and setting: next, `CC(C)n1ccc(=O)n(Cc2cc3c(-c4cc(Cl)cc5ccn(CC6(F)CCNCC6)c45)ncnn3c2)c1=O` [Example 127, 3-((4-(5-chloro-1-((4-fluoropiperidin-4-yl)methyl)-1H-indol-7-yl)pyrrolo[2,1-f][1,2,4]triazin-6-yl)methyl)-1-isopropylpyrimidine-2,4(1H,3H)-dione hydrochloride]: over 70%.

`Cc1cc(Cl)cc(-c2ncnn3cc(CN4C(=O)C5C(C4=O)C5(C)C)cc23)c1C(=O)N1CC(F)(F)C1` (stereo not shown) [Example 8, 3-((4-(5-chloro-2-(3,3-difluoroazetidine-1-carbonyl)-3-methylphenyl)pyrrolo[2,1-f][1,2,4]triazin-6-yl)methyl)-6,6-dimethyl-3-azabicyclo[3.1.0]hexane-2,4-dione hydrochloride] showed an inhibition at 1 µM of 20 to 49%.

As to `CC1(C)C2C(=O)N(Cc3cc4c(-c5cc(Cl)ccc5N5C[C@@H]6CCN[C@@H]6C5)ncnn4c3)C(=O)C21` (stereo partly drawn) [Example 96, 3-((4-(5-chloro-2-((3aS,6aS)-hexahydropyrrolo[3,4-b]pyrrol-5(1H)-yl)phenyl)pyrrolo[2,1-f][1,2,4]triazin-6-yl)methyl)-6,6-dimethyl-3-azabicyclo[3.1.0]hexane-2,4-dione hydrochloride], the inhibition at 1 µM was under 20%. Still for that read-out and setting: with `Cc1cc(Cl)cc(-c2ncnn3cc(Cn4c(=O)ccn(C)c4=O)cc23)c1C1=CCNCC1` [Example 88, 3-((4-(5-chloro-3-methyl-2-(1,2,3,6-tetrahydropyridin-4-yl)phenyl)pyrrolo[2,1-f][1,2,4]triazin-6-yl)methyl)-1-methylpyrimidine-2,4(1H,3H)-dione hydrochloride] the figure was under 20%; with `Cc1cc(Cl)cc(-c2ncnn3cc(Cn4c(=O)ccn(C)c4=O)cc23)c1CC1CNC[C@H](C)O1` (stereo partly drawn) [Example 122, 3-((4-(5-chloro-3-methyl-2-(((6S)-6-methylmorpholin-2-yl)methyl)phenyl)pyrrolo[2,1-f][1,2,4]triazin-6-yl)methyl)-1-methylpyrimidine-2,4(1H,3H)-dione dihydrochloride], 20 to 49%. The same measure, in the same setting: with `C[C@H]1CNCC(Cc2c(F)cc(Cl)cc2-c2ncnn3cc(CN4C(=O)CN(C)CC4=O)cc23)O1` (single isomer, unassigned) [Example 119, hydrochloride] the figure was 20 to 49%; with `CC1(C)C2C(=O)N(Cc3cc4c(-c5cc(C(F)(F)F)cc6ccn(C7CCNC7)c56)ncnn4c3)C(=O)C21` (stereo not shown) [Example 5, 6,6-dimethyl-3-((4-(1-(pyrrolidin-3-yl)-5-(trifluoromethyl)-1H-indol-7-yl)pyrrolo[2,1-f][1,2,4]triazin-6-yl)methyl)-3-azabicyclo[3.1.0]hexane-2,4-dione 2,2,2-trifluoroacetate], 20 to 49%; with `CC1(C)C2C(=O)N(Cc3cc4c(-c5cc(Cl)cc6c5N(C5CCNC5)CC5CC65)ncnn4c3)C(=O)C21` (stereo not shown) [Example 92, 3-((4-(6-chloro-3-(pyrrolidin-3-yl)-1a,2,3,7b-tetrahydro-1H-cyclopropa[c]quinolin-4-yl)pyrrolo[2,1-f][1,2,4]triazin-6-yl)methyl)-6,6-dimethyl-3-azabicyclo[3.1.0]hexane-2,4-dione hydrochloride], 50 to 70%.

Staying with this experiment, now noted: 1 μM of the test compound; given where IC50 has not been determined yet; mean of two repetitions; hydrochloride, 1 µM.
`Cc1cc(Cl)cc(-c2ncnn3cc(CN4C(=O)C5C(C4=O)C5(C)C)cc23)c1OC(C)[C@@H]1CNCCO1.Cl` (single isomer, unassigned) [Example 76]: the USP7 % inhibition entry is “B* (B*: 50-70% inhibition)”. Still for that read-out and setting: next, `Cc1cc(Cl)cc(-c2ncnn3cc(CN4C(=O)C5C(C4=O)C5(C)C)cc23)c1OC(C)C1CCNCC1.Cl` (single isomer, unassigned) [Example 57, 3-((4-(5-chloro-3-methyl-2-(1-(piperidin-4-yl)ethoxy)phenyl)pyrrolo[2,1-f][1,2,4]triazin-6-yl)methyl)-6,6-dimethyl-3-azabicyclo[3.1.0]hexane-2,4-dione hydrochloride]: “C* (C*: 20-49% inhibition)”.
